The source of these data is US7374944B2, “Device and bioanalytical method utilizing asymmetric biofunctionalized membrane” (Purdue Research Foundation, priority 2001, dated 2008).

Test [1] is described as follows: Impedance measurements of supported bolalipid membranes on Au electrodes. On the procedure: The effect of GA surface density on supported membrane impedance was determined using electrodes that had been coated with supported bolalipids by pretreatment with 2 prior to immersion for 24 hours into sonicated 1-GA vesicles containing varying amounts of GA. The 1-GA vesicle dispersions were prepared by sonicating dry 1-GA films in water (nominal GA:bolalipid molar ratios ranging from 1:500-1:50; 2 mM total lipid concentration). […] This observation is consistent with ^23Na NMR ion flux measurements made previously in our laboratory for gramicidin-containing 1 vesicles.
The effects of gramicidin loading on supported bolalipid membrane electrode impedance was further investigated in a sequential deposition experiment (FIG. 10). Adsorption of 2 onto Au electrodes for 1 hour to give partial surface coverage produced significant increases in impedance. Immersion of these pretreated electrodes into bolalipid vesicle solutions where gramicidin was either absent or present (i.e. 1 and 1-GA vesicles, respectively) produced membrane coated electrodes that had substantially different impedance characteristics in 10^−1-10^2 Hz frequency range. […]

The nature of test [2]: Capacitance and single channel measurements of C20 bolalipid membranes. The conditions noted are these: C20 bolalipid monolayer.

Turning to gramicidin, the “impedance of 2-treated electrode after immersion in 1-GA membrane solution” value in test [1] (1:100 molar ratio GA:1, 24 hours, compared with 2 or 2-1 coatings) is on record as “observed impedances were lower”. Moreover, the “effect of GA surface density on supported membrane impedance” value in test [1] (GA:bolalipid molar ratios 1:500-1:50, 1-10^3 Hz range) is recorded as “impedance decreases with increasing GA concentration”. For the same substance, in test [2], the “ion flux across the membrane” value is on record as “resulted in ion flux across the membrane”.
